Laboratory results reported in ChEMBL document CHEMBL3507680, “University of Dundee, Gates Library screen for HepG2 cell viability”.

Assay: Human HepG2 cell viability assay in 384 well format
Type: toxicity, cell-based
Parameters: dose 125 nL, time 70.5 hour; concentration not given beside the values
Settings: HepG2 cells, read-out: Inhibition

| SMILES | cytotoxicity at 70.5 h [%] |
| --- | --- |
| Cc1ccc2[nH]c(=O)c(CNCCCN3CCOCC3)cc2c1 | -8.68 |
| O=C(Cc1ccccn1)N1CCc2c(O)nc(-c3cnccn3)nc2C1 | -6.46 |
| Cc1ccc2cc(CNCCCN3CCOCC3)c(=O)[nH]c2c1C | -8.68 |
| CC(C)(C)C(=O)N1CCC(n2nc(-c3ccco3)ccc2=O)CC1 | -4.38 |
| O=C1NCC2(CCCN(Cc3ccc(F)cc3)C2)Oc2ccccc21 (stereo not given) | -1.98 |
| O=C(CCc1ccccc1)N1CCCC(c2n[nH]c3nccnc23)C1 (stereo not given) | -6.72 |
| CSc1ccc(CN2CCCC3(CNC(=O)c4ccccc4O3)C2)cc1 (stereo not given) | 2.19 |
| CCc1nc2ccccc2c(=O)n1CC1(O)CCN(C(=O)C(C)C)CC1 | -8.49 |
| O=C(Cc1ccsc1)N1CCCC(c2n[nH]c3ncccc23)C1 (stereo not given) | -5.61 |
| CS(=O)(=O)N1CCC(C(=O)NC(Cc2ccsc2)c2cccnc2)CC1 (stereo not given) | 23.2 |
| Cc1nc(C2CCN(C(=O)c3cscn3)CC2)c2sccn12 | -1.33 |
| Cc1cc(-c2cnn(CCNC(=O)c3cnn(C)c3)c2C2CC2)on1 | -2.33 |
| CCc1cccc2cc(CNCCCN3CCOCC3)c(=O)[nH]c12 | 0.0251 |
| Cc1cccc(CN2CCC(c3nnsc3S(C)(=O)=O)CC2)n1 | -4.43 |
| CS(=O)(=O)c1snnc1C1CCN(Cc2cccnc2)CC1 | 8.4 |
| CNc1ncc(CN2CCC(c3nnsc3S(C)(=O)=O)CC2)cn1 | -7.26 |
| Cc1ccc(C(=O)N2CCC[C@@H]2Cn2nnc3c(O)nc(C)nc32)cc1 | -2.37 |
| Cc1cc(C)c2cc(CNC3CCCCC3)c3nn(C)c(=O)n3c2c1 | 5.59 |
| Cc1cc(C)c2cc(CNCc3ccco3)c3nn(C)c(=O)n3c2c1 | 19.9 |
| CCCn1ncc(CN2C[C@@H]3CCCN3C[C@@H]2Cc2ccccc2)c1C | -2.55 |
| CCCN(C(=O)c1cccnc1)c1nc2c(s1)CCc1c-2cnn1C | 21 |
| Cc1cc(-c2ccccc2C(=O)O)nc(C2CCCCN2C)n1 (stereo not given) | -6.42 |
| Cc1cc(-c2cc(F)ccc2C(=O)O)nc(C2CCCN(C)C2)n1 (stereo not given) | 2.71 |

| SMILES | cytotoxicity at 70.5 h [%] |
| --- | --- |
| CC(C)N1CCC(Cc2cncc(-c3cc(F)ccc3C(=O)O)n2)C1 (stereo not given) | -6.34 |
| CN(C)Cc1ccnc(C2CCCN2Cc2cccc(F)c2F)n1 (stereo not given) | -2.17 |
| CN(C(=O)COc1ccc(F)cc1)[C@@H]1CC[C@@H](n2ccnc2)[C@@H]1O | -4.21 |
| O=C(c1ccncc1)N1CC[C@@H](O)[C@@H](O)[C@H](N2CCC(F)(F)CC2)C1 | -0.846 |
| Cc1cccc(CN2CCCC2c2cccc(CCC(=O)O)n2)c1 (stereo not given) | 15.7 |
| O[C@@H]1CN(Cc2ccncc2)C[C@H]1Oc1ccccc1 | -5.71 |
| CNc1cccc(C2CCCN(C(=O)c3cncs3)C2)n1 (stereo not given) | -4.52 |
| CNC(=O)c1cccc(C2CNCCN2C(=O)c2ccn(C)n2)c1 (stereo not given) | 0.974 |
| CCc1cc(C(=O)N2CCCC2c2nc(O)cc(CC)n2)on1 (stereo not given) | -1.1 |
| Cc1nc(Nc2ncccn2)cc(C2CCCN2Cc2ncc[nH]2)n1 (stereo not given) | -2.88 |
| Cc1cncc(CN2C[C@@H](O)[C@H](Oc3ccccc3)C2)c1 | -0.379 |
| Cc1ccc(S(=O)(=O)N2CCC(O)(CN(C)C)C2)cc1 (stereo not given) | -4.32 |
| NCc1cn(-c2ccccc2C(=O)NCc2ccccc2Cl)cn1 | -8.27 |
| COc1ccccc1CNC(=O)c1ccccc1-n1cnc(CN)c1 | -9.04 |
| CNC(=O)C1(c2cnccn2)CCCN1C(=O)c1cccnc1OC (stereo not given) | -9.36 |
| Cc1nc(O)c2nnn(C[C@H]3CCCN3C(=O)c3ccccc3C)c2n1 | 11.5 |
| C=Cn1ncc(CN2C[C@@H]3CCCN3C[C@@H]2CCSC)c1C | -6.32 |
| CN(C)CC1(O)CCN(S(=O)(=O)c2cccc(F)c2)C1 (stereo not given) | -4.11 |
| CNc1cccc(C2CCCN(C(=O)Cc3ccccc3)C2)n1 (stereo not given) | -7.78 |
| CN(C)S(=O)(=O)N1CCCC(c2cccc(Cc3ccc(Cl)cc3)n2)C1 (stereo not given) | 17.5 |
| CCS(=O)(=O)N1CCCC(Cc2cnccn2)C1 (stereo not given) | -6.07 |
| Cc1cn[nH]c1C1CCCCN1C(=O)CCc1ccc(F)cc1 (stereo not given) | -6.22 |
| CNc1cc(CNC(=O)c2cccnc2)nc(-c2ccncc2)n1 | -1.87 |

| SMILES | cytotoxicity at 70.5 h [%] |
| --- | --- |
| CCc1ccc(C(=O)N2CC[C@H](Oc3cccnc3C)[C@@H](O)CC2)cc1 | 14.4 |
| Nc1cc(CCC2CN(Cc3cccc(C(=O)O)c3)CCO2)ccn1 (stereo not given) | -7.61 |
| Cc1n[nH]cc1C(=O)N1CCCC(c2cccc(-n3ccnc3)n2)C1 (stereo not given) | -7.73 |
| Cc1ccc(C(=O)N2CCCC(c3[nH]ncc3S(C)(=O)=O)C2)s1 (stereo not given) | 10.6 |
| O=C(Cc1cccs1)N1CCC(O)(CN2CCc3ccccc3C2)C1 (stereo not given) | -4.88 |
| CCc1cc(C(=O)N2CCCC(c3[nH]ncc3S(C)(=O)=O)C2)no1 (stereo not given) | -7.59 |
| Cc1ccsc1C(=O)N1CCC(O)(CN2CCc3ccccc3C2)C1 (stereo not given) | -6.62 |
| CN(C(=O)C1CCOCC1)[C@@H]1CCC[C@@H](N2CCOCC2)[C@@H]1O | -5.89 |
| CC(O)c1cnn(-c2ccccc2)c1 (stereo not given) | 45.1 |
| Cc1ncc(C(=O)N2CCCC2c2c(C)nn(C)c2C)s1 (stereo not given) | -2.56 |
| C[C@H](O)c1cnn(-c2ccccc2)c1 | -1.87 |
| Cc1cc(C)c(C(=O)N(C)CCN(C)C(=O)OC(C)(C)C)[nH]1 | 6.57 |
| Cc1cc(C(=O)N(C)CCN(C)C(=O)OC(C)(C)C)oc1C | -2.24 |
| Cc1ccc(C(C)N(C)C(=O)c2ccc(=O)n(C)c2)s1 (stereo not given) | -0.24 |
| CCc1ccsc1C(=O)NC(C#N)CC(C)C (stereo not given) | -2.59 |
| CCN1CCCC(NC(=O)c2ccc(C)[nH]c2=O)C1 (stereo not given) | -8.86 |
| Cc1ccc(C(=O)NC2CCN(C(C)C)C2)c(=O)[nH]1 (stereo not given) | -14.4 |
| Cc1ccc(C(=O)NC2CCCN(C)C2)c(=O)[nH]1 (stereo not given) | -12.5 |
| Cc1nn(C)c(C)c1S(=O)(=O)NCC1(C(N)=O)CCOCC1 | -11.5 |
| CC(C(=O)NCC(C)(C)c1ccc2c(c1)OCO2)n1ccnc1 (stereo not given) | -1.09 |
| CCOCCN1CCN(c2ccc(C#N)cn2)CC1 | -9.92 |
| Cc1nc(NCc2nncn2C2CC2)c2c(CC(C)C)csc2n1 | 20 |
| Cc1cc(C)c(NC(=O)Nc2cnn(CC(O)CN(C)C)c2)c(C)c1 (stereo not given) | -13.2 |

| SMILES | cytotoxicity at 70.5 h [%] |
| --- | --- |
| N#Cc1ccc(Cl)cc1NCC1CC1 | -5.4 |
| Cc1nc(COC(=O)c2cccc3c2OCCO3)cs1 | -11.2 |
| CS(=O)(=O)N1CCC(CNc2c(Cl)cccc2C#N)CC1 | -1.91 |
| Cc1cc(C)c(CNc2cnn(CC(O)CN(C)C)c2)c(C)c1 (stereo not given) | -11.8 |
| N#CC1COCCN1C(=O)c1ccc2[nH]ccc2c1 (stereo not given) | 0.401 |
| CCOCCN1CCN(c2ccc(C#N)cn2)CC1CC (stereo not given) | 1.12 |
| CCOCCN1CCN(c2ncccc2C#N)CC1CC (stereo not given) | -3.73 |
| Cc1oc(-c2ccco2)nc1CN1CCc2cnc(C(C)C)nc2C1 | -12 |
| CC(NCc1cccc(COC2CCCC2)c1)c1cnn(C)c1 (stereo not given) | -3.04 |
| O=C(NC1CC1)c1ccc(SCc2cscn2)cc1 | -9.79 |
| Cc1noc(C(C)Nc2ccc3oc(C)nc3c2)n1 (stereo not given) | 11.9 |
| N#Cc1ccccc1CN1CCc2sccc2C1 | -8.96 |
| CC(CNC(=O)c1cccnc1O)Cn1cccn1 (stereo not given) | -7.01 |
| Cc1ccc(CNC(=O)Nc2nnc(C3CC3)s2)n1C | -0.672 |
| CCC(C#N)NC(=O)CCNC(=O)C(C)(C)C (stereo not given) | 0.625 |
| COc1cc(Cl)ccc1C(=O)NCc1n[nH]c(C)n1 | 1.46 |
| Cc1ccccc1C(C#N)NC(=O)c1cccc2c1OCCO2 (stereo not given) | 11 |
| Cc1[nH]nc2ncc(C(=O)N3CCN(CC(O)C(C)(C)C)CC3)cc12 (stereo not given) | -1.93 |
| COC(C)c1noc(CN(C)c2nccnc2C#N)n1 (stereo not given) | 1.72 |
| CC(CNS(N)(=O)=O)Oc1ccc(Cl)cc1 (stereo not given) | 1.53 |
| CN(C)c1nc(CNC(=O)NC2CCc3ccccc32)cs1 (stereo not given) | -0.66 |
| c1ccc2oc(N3CCn4c(nnc4C4CC4)C3)nc2c1 | -2.1 |
| CC(C)N1CCC(O)(CNC(=O)CC2OCCc3ccccc32)CC1 (stereo not given) | 4.01 |

| SMILES | cytotoxicity at 70.5 h [%] |
| --- | --- |
| CN(c1nc(Cn2cc(Br)ccc2=O)cs1)C1CC1 | -4.85 |
| O=C(CN1CCCS1(=O)=O)Nc1ccc(OC2CCCC2)cc1 | -0.244 |
| CSc1c[nH]nc1NS(=O)(=O)c1cc(F)ccc1Cl | -0.455 |
| COC(C)c1noc(CN(C)c2ncccn2)n1 (stereo not given) | -1.92 |
| CN(Cc1ccc(C(=O)O)cc1)C(=O)c1sccc1OC(F)F | 3.59 |
| CC(C)c1nnc2n1CCN(c1nc3ccccc3o1)C2 | -10.1 |
| CN(c1nc(Cn2cnccc2=O)cs1)C1CC1 | -4.18 |
| CS(=O)(=O)C1(CNCc2cccc(-n3cccn3)c2)CCOCC1 | 12.5 |
| CCn1cnnc1CCNS(=O)(=O)N1CCCC1c1ccco1 (stereo not given) | -9.13 |
| CCc1noc(C(C)Sc2nnc(C3CC3)n2CC(N)=O)n1 (stereo not given) | -0.541 |
| O=C(NCC1CCS(=O)(=O)C1)N(Cc1ccccn1)C1CC1 (stereo not given) | -6.34 |
| O=C(NCc1cc(-c2ccccc2)no1)NC1CCCCNC1=O (stereo not given) | 4.05 |
| O=C(NCC(=O)N1CCCCC1)c1sccc1C1CC1 | 7.84 |
| Cn1nc(C2CCCN(Cc3ccc(F)c(F)c3)C2)c2nccnc21 (stereo not given) | 27.1 |
| COc1cccc(CN2CCCC(c3nn(C)c4nccnc34)C2)c1 (stereo not given) | 14.8 |
| Cn1nc(C2CCN(C(=O)Cc3ccsc3)CC2)c2cccnc21 | -7.5 |
| Cn1nc(C2CCN(C(=O)CCN3CCOCC3)CC2)c2cccnc21 | -2.43 |
| CCc1nc2ccccc2c(=O)n1CC1(O)CCN(C(=O)COC)CC1 | -2.82 |
| OC[C@H]1CC[C@]2(CC1)CN(Cc1ccsc1)Cc1ccccc1O2 | 7.87 |
| CCN(CC)S(=O)(=O)N1CCc2nc(C3CCNCC3)ncc2C1 | -4.41 |
| CC(C)c1nn(C)c(Cl)c1CNCC(=O)N1CCN(C)CC1 | -4.93 |
| COc1cc(CN(CCCN(C)C)Cc2ccccn2)cc2c1OCO2 | 0.223 |
| Fc1ccc(OCCCNC2=NCCN2)cc1 | -14.3 |
